Data reported in patent publication US11485751B2, “Apramycin derivatives” (WAYNE STATE UNIVERSITY, priority 2017, dated 2022).
≈ marks a conversion by molar mass, not a printed value. Where two headings read alike, the source gives them in different places.

Legend:
bacterial ribosomes = assay: in-vitro translation assay, bacterial ribosomes; type: biochemical
Outline: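 Cell-free translation; IC50 read-out. Mito = human chimeric ribosomes; cytosolic = rabbit reticulocyte ribosomes; bacterial ribosomes run in the same assay format.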

[1] = system: AG212, Escherichia coli ATCC25922; assay: MIC reference strain AG212; type: cell-based; details: Escherichia coli; reference strain ATCC25922; read-out: MIC AG212 E. coli
Outline: (§1)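 The method determines minimal inhibitory concentrations using the standard CLSI microdilution procedure in liquid medium.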

[2] = system: Engineered E. coli pH424 armA; assay: Activity against G1405-methylated 16S-rRNA, E. coli pH424 armA; type: cell-based
Outline: (§2)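 Strains are tested by broth microdilution under the CLSI M07-A10 procedure. The lowest inhibitory concentration is recorded as the MIC.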

[3] = system: human mitochondrial ribosomes; assay: in-vitro translation assay, human mitochondrial (human chimeric) ribosomes; type: biochemical
Outline: (§3)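 Reported values are IC50s for inhibition of in-vitro translation. For the mitochondrial target, human chimeric ribosomes were used. For the cytosolic target, rabbit reticulocyte ribosomes were used.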

AG031 P. aer. APH(3′)-II = assay: Antibacterial activity, clinical isolate AG031; type: cell-based; set-up: unit not given here
Outline: (§4)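 Susceptibility was tested per CLSI aerobic dilution protocol using microbroth format, with the MIC taken as the end point.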

[4] = system: AG220, Pseudomonas aeruginosa ATCC27853; assay: MIC reference strain AG220; type: cell-based; details: Pseudomonas aeruginosa, ATCC27853, reference strain ATCC27853; read-out: MIC AG220 P. aeruginosa
Outline: as §1

[5] = system: K. pneum. AG269 AAC(3)-II AAC(6′)-I rmtB; assay: Activity against G1405-methylated 16S-rRNA, clinical isolate AG269; type: cell-based
Excerpt: (§5) Minimal inhibitory concentrations (MIC) have been determined by broth microdilution assays (CLSI. Methods for Dilution Antimicrobial Susceptibility Tests for Bacteria That Grow Aerobically; Approved Standard—Tenth Edition. CLSI document M07-A10. Wayne, Pa.: Clinical and Laboratory Standards Institute; 2015.).

AG038 MRSA = assay: Antibacterial activity, clinical isolate AG038; type: cell-based; set-up: unit not given here
Outline: as §4

[6] = system: clinical isolates carrying APH(3′)-II; assay: MIC broth microdilution, APH(3′)-II; type: cell-based; details: read-out: MIC APH(3′)-II
Excerpt: as §5
(§6) Minimal inhibitory concentrations (MICs, […]) against clinical isolates from Institute of Medical Microbiology, Univ. Zurich, and the IC50 values for bacterial, human mitochondrial and human cytosolic ribosomes are indicated.

[7] = system: human cytosolic ribosomes; assay: in-vitro translation assay, human cytosolic ribosomes; type: biochemical
Outline: as §3

[8] = system: clinical isolates carrying APH(3′)-VI; assay: MIC broth microdilution, APH(3′)-VI; type: cell-based; details: IMM Univ. Zurich
Excerpt: as §5, §6

[9] = system: Enterob. AG302 AAC(3)-II AAC(6′)-I rmtC; assay: Activity against G1405-methylated 16S-rRNA, clinical isolate AG302; type: cell-based
Excerpt: as §5

[10] = system: clinical isolates carrying APH(3′)-I; assay: MIC broth microdilution, APH(3′)-I; type: cell-based; details: IMM Univ. Zurich
Excerpt: as §5, §6

[11] = system: AG215, Klebsiella pneumonia; assay: MIC reference strain AG215; type: cell-based; details: Klebsiella pneumoniae, reference strain; read-out: MIC AG215 K. pneumonia
Outline: as §1

AG173 E. coli AAC(3)-IV = assay: Antibacterial activity, clinical isolate AG173; type: cell-based
Outline: as §4

AG001 E. coli WT = assay: Antibacterial activity, clinical isolate AG001; type: cell-based; set-up: unit not given here
Outline: as §4

[12] = system: E. coli AG153 AAC(3)-II APH(3′)-II rmtB; assay: Activity against G1405-methylated 16S-rRNA, clinical isolate AG153; type: cell-based
Excerpt: as §5

[13] = system: clinical isolates carrying APH(3′)-III; assay: MIC broth microdilution, APH(3′)-III; type: cell-based; details: IMM Univ. Zurich
Excerpt: as §5, §6

[14] = system: SZ380, Mycobacterium smegmatis; assay: MIC reference strain SZ380; type: cell-based; details: Mycolicibacterium smegmatis, reference strain; read-out: MIC SZ380 M. smegmatis
Outline: as §1

[15] = system: AG225, Acinetobacter baumannii pittii; assay: MIC reference strain AG225; type: cell-based; details: Acinetobacter baumannii, reference strain; read-out: MIC AG225 A. baumannii
Outline: as §1

[16] = system: Engineered E. coli pH430 WT; assay: Activity, engineered E. coli pH430 WT; type: cell-based; details: wild type
Outline: as §2

[17] = system: A baum. AG227 APH(3′)-I armA; assay: Activity against G1405-methylated 16S-rRNA, clinical isolate AG227; type: cell-based
Excerpt: as §5

[18] = system: AG290, Enterobacter cloacae; assay: MIC reference strain AG290; type: cell-based; details: Enterobacter cloacae; reference strain; read-out: MIC AG290 E. cloacae
Outline: as §1

[19] = system: clinical isolates carrying AAC(3)-IV; assay: MIC broth microdilution, AAC(3)-IV; type: cell-based; details: clinical isolates, IMM Univ. Zurich; AAC(3)-IV; read-out: MIC AAC(3)-IV
Outline: (§7)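 Clinical isolates supplied by the Zurich Institute of Medical Microbiology were tested for MIC (μg/ml) using CLSI M07-A10 broth microdilution.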

WT clinical isolates = assay: MIC broth microdilution, WT; type: cell-based; details: read-out: MIC WT, clinical isolates, IMM Univ. Zurich; wild type
Outline: as §7

For `CNC1C(O)C2O[C@H](O[C@@H]3C(N)C[C@@H](N)C(O)[C@H]3O[C@@H]3O[C@H](CNCCN)[C@@H](O)[C@H]3O)C(N)C[C@@H]2O[C@@H]1O[C@H]1OC(CO)[C@@H](N)[C@H](O)C1O` (stereo partly drawn) [DC214], the IC50 (bacterial ribosomes) was 0.09 µM, the MIC [1] was 2 µg/mL and the “Activity E. coli pH424 armA” value [2] was 2. For the same compound, the IC50 [3] was 178 µM, the “Antibacterial activity AG031 P. aer. APH(3′)-II” value (AG031 P. aer. APH(3′)-II) was 8-16 and the MIC [4] was 8 µg/mL. For the same compound, the “Activity K. pneum. AG269 AAC(3)-II AAC(6′)-I rmtB” value [5] was 2, the “Antibacterial activity AG038 MRSA” value (AG038 MRSA) was 4 and the MIC ([6]; clinical isolates, IMM Univ. Zurich, APH(3′)-II) was 4 µg/mL (≈ 5.6 µM). The IC50 [7] was 85 µM, the MIC [8] was 4 µg/mL (≈ 5.6 µM) and the “Activity Enterob. AG302 AAC(3)-II AAC(6′)-I rmtC” value [9] was 1-2. For the same compound, the MIC [10] was 2 µg/mL (≈ 2.8 µM), the MIC [11] was 1 µg/mL and the “Antibacterial activity AG173 E. coli AAC(3)-IV” value (AG173 E. coli AAC(3)-IV) was 16. For the same compound, the “Antibacterial activity AG001 E. coli WT” value (AG001 E. coli WT) was 2, the “Activity E. coli AG153 AAC(3)-II APH(3′)-II rmtB” value [12] was 2 and the MIC [13] was 1 µg/mL (≈ 1.4 µM). The MIC [14] was 0.25 µg/mL, the MIC [15] was 8 µg/mL and the “Activity E. coli pH430 WT” value [16] was 4. For the same compound, the “Activity A baum. AG227 APH(3′)-I armA” value [17] was 4-8, the MIC [18] was 1 to 2 µg/mL and the MIC [19] was 8 to 16 µg/mL (≈ 11.2 to 22.4 µM).

`NC[C@@H]1O[C@H](O[C@H]2[C@@H](O)[C@H](O[C@@H]3[C@@H](O)[C@H](N)C[C@H](N)[C@H]3O[C@H]3O[C@H](CO)[C@@H](O)[C@H](O)[C@H]3N)O[C@@H]2CO)[C@H](N)[C@@H](O)[C@@H]1O` [paromomycin, reference compound] was tested, and the IC50 (bacterial ribosomes) was 0.02 µM, the IC50 [3] was 86 µM and the MIC (WT clinical isolates) was 1 to 2 µg/mL (≈ 1.62 to 3.25 µM). The MIC [6] was over 128 µg/mL, the IC50 [7] was 19 µM and the MIC [8] was over 128 µg/mL. It also gave an MIC [10] of over 128 µg/mL, an MIC [13] of over 128 µg/mL and an MIC [19] of 128 µg/mL (≈ 208 µM).
